From patent US20110237626A1, “COMPOSITIONS FOR HYGIENIC HAND DISINFECTION AND DISINFECTANT HANDWASHING” (AIR LIQUIDE SANTE (INTERNATIONAL), priority 2005, published 2011)

A solubility in water of 0.1 % by weight was found for CCCCC(CC)COCC(O)CO (stereo not shown) [1-(2-ethylhexyl)glycerol ether, 1-(2-Ethylhexyl)-glycerol ether] in this work.
